Among the data in US20240108738A1, “BICYCLIC PEPTIDE LIGANDS SPECIFIC FOR NK CELLS” (Bicycle Tx Limited, priority 2021, published 2024) are Kd values, retold here.

A word on the Kd: it is a measure of binding affinity in units of concentration. A lower Kd goes with tighter binding.

Numbered stars: 1 amine (or outer) side, 2 acyl side, 3 side chain; on linkers, the order of the positions; unused ones are H or OH. Bridge positions count the residues as written; N and C are the ends. Square brackets hold non-standard residues; d marks the D form. Peptide text beside a SMILES is read from it. TATA = O=C(CC[*:1])N1CN(C(=O)CC[*:2])CN(C(=O)CC[*:3])C1; Cba = N[C@@H](CC1CCC1)C(=O)O; Pen = CC(C)(S)[C@H](N)C(=O)O; Pip = O=C(O)[C@@H]1CCCCN1 Bounds are passed on as bounds.

T1 sequence (O76036 22-304): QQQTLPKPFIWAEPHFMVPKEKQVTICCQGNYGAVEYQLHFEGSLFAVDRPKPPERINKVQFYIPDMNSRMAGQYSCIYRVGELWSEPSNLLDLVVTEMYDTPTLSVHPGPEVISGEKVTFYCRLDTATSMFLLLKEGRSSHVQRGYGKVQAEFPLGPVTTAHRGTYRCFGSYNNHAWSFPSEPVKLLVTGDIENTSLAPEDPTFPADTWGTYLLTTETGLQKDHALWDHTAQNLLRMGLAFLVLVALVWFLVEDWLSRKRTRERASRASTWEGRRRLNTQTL

The test concerns the target T1, Fc-tagged human NKp46 (Homo sapiens, UniProt O76036).
T1 construct: purchased ACROBiosystems NC1-H5257
Briefly: NKp46 SPR assay (Method 1 and/or Method 2). Format: binding. To be noted: SPR Method 1 and/or Method 2, Table 3B. As for the experimental part: SPR experiments were performed to determine ka (M^−1s^−1), kd (s^−1), KD (nM) values (where measurable) of various bicyclic peptides to immobilised NKp46.
For analysis of peptide binding to NKp46, a Biacore 3000 instrument was used with a Cytiva Streptavidin chip. Capture of the protein (recombinant human NKp46-Fc fusion biotinylated via Avi-tag) was carried out at 25° C. with HBS-N (10 mM HEPES, 0.15 M NaCl, pH 7.4) as the running buffer and biotinylated NKp46 was captured to a level of 400-800 RU using a dilution of protein to 0.2 μM in buffer. Buffer was then changed to PBS/0.05% Tween 20 and a dilution series of the peptides was prepared in this buffer with a final DMSO concentration of 0.5% with a top peptide concentration of 100 nM-5000 nM and 6 further 2 or 3-fold dilutions. The SPR analysis was run at 25° C. and a flow rate of 50 μl/min with 60 seconds association and 200-400 seconds dissociation time. Data were corrected for DMSO excluded volume effects. All data were double-referenced for blank injections and reference surface using standard processing procedures and data processing and kinetic fitting were performed using Scrubber software, version 2.0c (BioLogic Software). Data were fitted using simple 1:1 binding model allowing for mass transport effects where appropriate.
Peptides were tested against Fc-tagged human NKp46 (ACROBiosystems, cat no. NC1-H5257).
For analysis of peptide binding, a Biacore 8k+ instrument was used with a CM5 chip (Cytiva). All experiments were carried out at 25° C. Anti-human IgG (Fc) antibody (Cytiva) was immobilized on all flow cells by standard amine coupling chemistry. The running buffer was HBS-N(Cytiva, 10 mM HEPES, 0.15 M NaCl, pH 7.4) and the flow rate was 10 μL/min. The carboxymethyl dextran surface was activated with a 1:1 ratio of 0.4 M 1-ethyl-3-(3-dimethylaminopropyl) carbodiimide hydrochloride (EDC)/0.1 M N-hydroxy succinimide (NHS) (Cytiva) for 420s. […] Residual activated groups were blocked with a 420 s injection of 1 M ethanolamine (pH 8.5). The final surface density was 3000-5000 RU. Fc-tagged human NKp46 was diluted to 0.1 μM in HBS-N and was captured on flow cell 2 only of the sensor chip at a flow rate of 10 μL/min to 500-1000 RU. The buffer was then changed to PBS-P+(Cytiva) supplemented with 2% DMSO. […] The flow rate was 50 μL/min with 60 s association and 400 s dissociation. Data were corrected for DMSO volume exclusion effects. All data were double-referenced against blank injections and reference surface response using standard processing procedures. Data processing and kinetic fitting was performed using Biacore Insight Evaluation Software with Extended Screening and Characterization Extension (Cytiva). Data were fitted using steady state affinity 1:1 binding model to determine KD. Data were fitted using kinetic 1:1 binding model to determine kinetic constants where appropriate.
(SPR reads the build-up and loss of mass on a sensor chip optically.)
Turning to `CC[C@H](C)[C@@H]1NC(=O)CNC(=O)[C@H](Cc2c[nH]c3ccccc23)NC(=O)[C@H](C(C)C)NC(=O)[C@@H]2CSCCC(=O)N3CN(CN(C3)C(=O)CCSC[C@@H](C(=O)N[C@@H](C)C(N)=O)NC1=O)C(=O)CCSC[C@H](NC(=O)[C@H](C)N)C(=O)N[C@@H](CC(=O)O)C(=O)N[C@@H](CC(C)C)C(=O)N[C@@H]([C@@H](C)O)C(=O)N[C@@H]([C@@H](C)O)C(=O)N[C@@H](Cc1c[nH]cn1)C(=O)N[C@@H](CC(N)=O)C(=O)N2` [BCY18285, A-(SEQ ID NO: 128)-A] (H-ACDLTTHNCVWGICA-NH2; linker 2-9-14 via TATA; N-terminus and C-terminus assumed), the Kd came to 3760 nM.

The compound `CSCC[C@@H]1NC(=O)[C@@H]2CSCCC(=O)N3CN(CN(C3)C(=O)CCSC[C@@H](C(=O)N[C@@H](C)C(N)=O)NC(=O)[C@H](C(C)C)NC(=O)[C@H](CCCCN)NC(=O)CNC(=O)[C@H]([C@@H](C)O)NC(=O)[C@H](CC(C)C)NC1=O)C(=O)CCSC[C@H](NC(=O)[C@H](C)N)C(=O)N[C@@H](CC(N)=O)C(=O)N[C@@H](CC(C)C)C(=O)N[C@@H](CCC(N)=O)C(=O)N[C@@H](C)C(=O)N1CCCC[C@H]1C(=O)N2` [BCY19701, A-(SEQ ID NO: 92)-A] (H-ACNLQA[Pip]CMLTGKVCA-NH2; linker 2-8-15 via TATA) showed a Kd of 4030 nM.

`CC(=O)N[C@H]1CSCCC(=O)N2CN3CN(C2)C(=O)CCSC[C@H](C(N)=O)NC(=O)[C@H](Cc2ccc(O)cc2)NC(=O)[C@H](CCC(=O)O)NC(=O)[C@H](CC(=O)O)NC(=O)[C@@H](C)NC(=O)[C@H](CSCCC3=O)NC(=O)[C@H](CC(C)C)NC(=O)[C@H](Cc2ccc(O)cc2)NC(=O)[C@H](CC(=O)O)NC(=O)[C@@H]2CCCN2C(=O)[C@H](CC2CCC2)NC(=O)[C@H](Cc2ccc(O)cc2)NC1=O` [BCY19692, Ac-(SEQ ID NO: 156)] (Ac-CY[Cba]PDYLC[dA]DEY[dC]-NH2; linker 1-8-13 via TATA) gave a Kd of over 500 nM.

In the case of `CC(=O)N[C@@H]1C(=O)N[C@@H](Cc2ccc(O)cc2)C(=O)N[C@@H](CC2CCC2)C(=O)N2CCC[C@H]2C(=O)N[C@@H](CC(=O)O)C(=O)N[C@@H](Cc2ccc(O)cc2)C(=O)N[C@@H](CC(C)C)C(=O)N[C@H]2CSCCC(=O)N3CN(CN(C3)C(=O)CCSC1(C)C)C(=O)CCSC[C@@H](C(N)=O)NC(=O)[C@H](Cc1ccc(O)cc1)NC(=O)[C@H](CCC(=O)O)NC(=O)[C@H](CC(=O)O)NC(=O)[C@@H](C)NC2=O` [BCY19689, Ac-(SEQ ID NO: 153)] (Ac-[Pen]Y[Cba]PDYLC[dA]DEYC-NH2; linker 1-8-13 via TATA; C-terminus assumed), the Kd was found to be 16 nM.

Consider `CSCC[C@@H]1NC(=O)[C@@H]2CSCCC(=O)N3CN(CN(C3)C(=O)CCSC[C@H](N)C(=O)N[C@@H](CC(N)=O)C(=O)N[C@@H](CC(C)C)C(=O)N[C@@H](CCC(N)=O)C(=O)N[C@@H](C)C(=O)N3CCC[C@H]3C(=O)N2)C(=O)CCSC[C@@H](C(=O)N[C@@H](C)C(N)=O)NC(=O)[C@H](C(C)C)NC(=O)[C@H](CCCCN)NC(=O)CNC(=O)[C@H]([C@@H](C)O)NC(=O)[C@H](CC(C)C)NC1=O` [BCY19694, (SEQ ID NO: 4)-A] (H-CNLQAPCMLTGKVCA-NH2; linker 1-7-14 via TATA), for which the Kd amounted to 2510 nM.

On to `CC[C@H](C)[C@@H]1NC(=O)[C@H]([C@@H](C)CC)NC(=O)[C@@H]2CCCN2C(=O)[C@H](Cc2c[nH]cn2)NC(=O)[C@H]([C@@H](C)O)NC(=O)[C@H](CC(N)=O)NC(=O)[C@@H]2CCCN2C(=O)[C@@H]2CSCCC(=O)N3CN(CN(C3)C(=O)CCSC[C@@H](C(=O)N[C@@H](C)C(N)=O)NC1=O)C(=O)CCSC[C@H](NC(=O)[C@H](C)N)C(=O)N[C@@H](CC(C)C)C(=O)N[C@@H](CC(C)C)C(=O)N[C@@H](Cc1c[nH]cn1)C(=O)N[C@@H](CC(=O)O)C(=O)N[C@@H](Cc1c[nH]cn1)C(=O)N2` [BCY15106, A-(SEQ ID NO: 8)-A] (H-ACLLHDHCPNTHPIICA-NH2; linker 2-8-16 via TATA), for which the Kd came to 2670 nM.

Turning to `CSCC[C@@H]1NC(=O)[C@@H]2CSCCC(=O)N3CN(CN(C3)C(=O)CCSC[C@@H](C(=O)N[C@@H](C)C(N)=O)NC(=O)[C@H](C(C)C)NC(=O)[C@H](CCCCN)NC(=O)CNC(=O)[C@H]([C@@H](C)O)NC(=O)[C@H](C(C)C)NC1=O)C(=O)CCSC[C@H](NC(=O)[C@H](C)N)C(=O)N[C@@H](CC(N)=O)C(=O)N[C@@H](CC(C)C)C(=O)N[C@@H](CCC(N)=O)C(=O)N[C@@H](C)C(=O)N1CCC[C@H]1C(=O)N2` [BCY19702, A-(SEQ ID NO: 93)-A] (H-ACNLQAPCMVTGKVCA-NH2; linker 2-8-15 via TATA; N-terminus assumed), the Kd is 2680 nM. The Kd values of the last two compounds are within 1.5-fold of each other.

On to `CC[C@H](C)[C@@H]1NC(=O)CNC(=O)[C@H](Cc2c[nH]c3ccccc23)NC(=O)[C@H](CCC(N)=O)NC(=O)[C@@H]2CSCCC(=O)N3CN(CN(C3)C(=O)CCSC[C@H](N)C(=O)N[C@@H](CC(=O)O)C(=O)N[C@@H](CC(C)C)C(=O)N[C@@H]([C@@H](C)O)C(=O)N[C@@H]([C@@H](C)O)C(=O)N[C@@H](Cc3c[nH]cn3)C(=O)N[C@@H](CC(N)=O)C(=O)N2)C(=O)CCSC[C@@H](C(N)=O)NC1=O` [BCY18262, (SEQ ID NO: 11)], for which the affinity, expressed as Kd, was 3180 nM. The Kd values of the last two compounds are within 1.5-fold of each other.

As for `CC(C)C[C@@H]1NC(=O)[C@H](CC(=O)O)NC(=O)[C@@H](NC(=O)[C@H](C)N)CSCCC(=O)N2CN3CN(C2)C(=O)CCSC[C@H](NC(=O)[C@H](CC(N)=O)NC(=O)[C@H](Cc2c[nH]cn2)NC(=O)[C@H]([C@@H](C)O)NC(=O)[C@H]([C@@H](C)O)NC1=O)C(=O)N[C@@H](CCC(N)=O)C(=O)N[C@@H](Cc1c[nH]c2ccccc12)C(=O)NCC(=O)N[C@@H](C)C(=O)N[C@H](C(=O)N[C@@H](C)C(N)=O)CSCCC3=O` [BCY18272, A-(SEQ ID NO: 120)-A] (H-ACDLTTHNCQWGACA-NH2; linker 2-9-14 via TATA), the Kd worked out at 3190 nM.

As for `CSCC[C@@H]1NC(=O)[C@@H]2CSCCC(=O)N3CN(CN(C3)C(=O)CCSC[C@@H](C(=O)N[C@@H](C)C(N)=O)NC(=O)[C@H](C(C)C)NC(=O)[C@H](CCCCN)NC(=O)CNC(=O)[C@H]([C@@H](C)O)NC(=O)[C@H](CC(C)C)NC1=O)C(=O)CCSC[C@H](NC(=O)[C@H](C)N)C(=O)N[C@@H](CC(N)=O)C(=O)N[C@@H](CC(C)C)C(=O)N[C@@H](CCC(N)=O)C(=O)N[C@@H](C)C(=O)N[C@@H](C)C(=O)N2` [BCY18299, A-(SEQ ID NO: 64)-A] (H-ACNLQAACMLTGKVCA-NH2; linker 2-8-15 via TATA; N-terminus assumed), the Kd stood at 1800 nM.

The compound `CSCC[C@@H]1NC(=O)[C@H](CCCCN)NC(=O)[C@@H]2CCCN2C(=O)[C@H](Cc2c[nH]cn2)NC(=O)[C@H]([C@@H](C)O)NC(=O)[C@H](CC(N)=O)NC(=O)[C@@H]2CCCN2C(=O)[C@@H]2CSCCC(=O)N3CN(CN(C3)C(=O)CCSC[C@@H](C(=O)N[C@@H](C)C(N)=O)NC1=O)C(=O)CCSC[C@H](NC(=O)[C@H](C)N)C(=O)N[C@@H](CC(C)C)C(=O)N[C@@H](CC(C)C)C(=O)N[C@@H](Cc1c[nH]cn1)C(=O)N[C@@H](CCC(=O)O)C(=O)N[C@@H](Cc1c[nH]cn1)C(=O)N2` [BCY15104, A-(SEQ ID NO: 6)-A] (H-ACLLHEHCPNTHPKMCA-NH2; linker 2-8-16 via TATA) gave an equilibrium dissociation constant (Kd) of 2880 nM.

Compound `CC[C@H](C)[C@@H]1NC(=O)CNC(=O)[C@H](Cc2c[nH]c3ccccc23)NC(=O)[C@H](CCC(N)=O)NC(=O)[C@@H]2CSCCC(=O)N3CN(CN(C3)C(=O)CCSC[C@@H](C(=O)N[C@@H](C)C(N)=O)NC1=O)C(=O)CCSC[C@H](NC(=O)[C@H](C)N)C(=O)N[C@@H](CC(=O)O)C(=O)N[C@@H](CC(C)C)C(=O)N[C@@H](C)C(=O)N[C@@H]([C@@H](C)O)C(=O)N[C@@H](Cc1c[nH]cn1)C(=O)N[C@@H](CC(N)=O)C(=O)N2` [BCY18265, A-(SEQ ID NO: 117)-A] (H-ACDLATHNCQWGICA-NH2; linker 2-9-14 via TATA; C-terminus assumed) displayed a Kd of 1480 nM.
